The target in the assay is T1, androgen receptor (AR) (Homo sapiens, UniProt P10275, T878A).
T1 sequence (P10275 1-920 T878A): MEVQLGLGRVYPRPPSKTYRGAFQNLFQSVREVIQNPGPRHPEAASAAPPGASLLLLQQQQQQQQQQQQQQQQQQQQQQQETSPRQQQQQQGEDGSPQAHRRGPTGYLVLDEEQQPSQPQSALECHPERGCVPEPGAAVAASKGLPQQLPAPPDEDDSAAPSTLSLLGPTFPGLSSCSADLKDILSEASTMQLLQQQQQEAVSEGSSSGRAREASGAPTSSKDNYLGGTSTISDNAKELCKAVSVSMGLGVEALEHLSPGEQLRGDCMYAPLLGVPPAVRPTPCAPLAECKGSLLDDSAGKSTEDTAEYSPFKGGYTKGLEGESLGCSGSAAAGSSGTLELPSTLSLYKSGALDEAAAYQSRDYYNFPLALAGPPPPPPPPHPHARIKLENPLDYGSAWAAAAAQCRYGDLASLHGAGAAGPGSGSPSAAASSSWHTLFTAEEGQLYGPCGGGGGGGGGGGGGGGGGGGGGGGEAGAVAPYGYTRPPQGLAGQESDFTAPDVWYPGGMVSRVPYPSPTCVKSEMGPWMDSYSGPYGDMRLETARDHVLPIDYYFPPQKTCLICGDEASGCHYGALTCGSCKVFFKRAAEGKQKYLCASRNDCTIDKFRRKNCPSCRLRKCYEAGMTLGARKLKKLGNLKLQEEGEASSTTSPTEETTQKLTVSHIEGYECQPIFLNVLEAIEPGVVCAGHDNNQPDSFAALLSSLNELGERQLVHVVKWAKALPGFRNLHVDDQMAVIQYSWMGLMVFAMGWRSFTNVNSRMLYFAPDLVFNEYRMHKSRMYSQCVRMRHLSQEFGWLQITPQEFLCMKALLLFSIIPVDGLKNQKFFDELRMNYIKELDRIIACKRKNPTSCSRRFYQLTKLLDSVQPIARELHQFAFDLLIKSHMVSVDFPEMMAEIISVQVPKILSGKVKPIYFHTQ
In words: eGFP cellular AR transcription assay (LNCaP eGFP cells, LN-ARR2PB-eGFP). Particulars: for inhibition at 3 µM: LNCaP, read-out: % Inhibition (3 μM); for anti-AR activity (AR transcriptional inhibition) in words: LNCaP (T877A AR); for eGFP IC50: 0.1 nM R1881.

[1] abbreviates: eGFP IC50 (μM), LNCaP eGFP cells.

SMILES strings stand for the structures. Where two headings read alike, the source gives them in different places.

As to `c1ccc2sc(-c3csc(N4CCOCC4)n3)nc2c1` [Compound 14137], the “% Inhibition (3 μM)” value was 37.44%.
Still for that read-out and setting: the value for `COc1ccc(-c2csc(N3CCOCC3)n2)cc1OC` [Compound 14252] was 26.03%; that for `Cc1sccc1-c1csc(N2CCOCC2)n1` [Compound 14407] was 38.00%.
With `c1ccc(-c2csc(N3CCSCC3)n2)cc1` [Compound 14385], for the setting “eGFP IC50 (μM), Series 1”, the IC50 worked out at 0.6 µM.
With `c1ccc2oc(-c3csc(N4CCOCC4)n3)cc2c1` [Compound 14136], the “% Inhibition (3 μM)” value is recorded as 40.98%.
In the case of `CC1CN(c2cnc3ccccc3n2)CC(C)O1` (stereo not drawn) [Compound 14487], the inhibition at 3 µM came out at 27%.
On to `CC(C)Oc1c(F)cccc1-c1csc(N2CCOCC2)n1` [Compound 14430], for which the inhibition at 3 µM stood at 106%. Besides, where the note is “eGFP IC50 (μM), Series 1”, the IC50 is 5.27 µM.
For `c1cc2c(cc1-c1csc(N3CCOCC3)n1)COC2` [Compound 14282], the “% Inhibition (3 μM)” value was found to be 29.04%.
Consider `Cc1sc(CO)c(-c2csc(N3CCOCC3)n2)c1C` [Compound 14466], for which, where the note is “eGFP IC50 (μM), Series 1”, half-maximal inhibition (IC50) was put at 0.4 µM.
As to `Oc1ccccc1/C=C/c1ccccn1` [Compound 14088], the midpoint of inhibition under setting [1], the IC50, lay at 3.54 µM.
Take `COc1ccc(-c2nc(-c3ccccc3)cs2)cc1` [Compound 14419]: the “% Inhibition (3 μM)” value was determined as 119.36%. The IC50 (read-out: eGFP IC50) was 6.11 µM.
On to `CS(=O)(=O)c1ccc(-c2csc(N3CCOCC3)n2)cc1` [Compound 14277], for which the “% Inhibition (3 μM)” value was determined as 12.71%.
With `C/C(=N/O)c1ccc2c(C)ccc3c2c1CC3` [Compound 14171], the inhibition at 3 µM came out at 99.6%. Under setting [1], this molecule showed an IC50 of 3.38 µM.
Turning to `CCc1ccc(-c2csc(N3CCOCC3)n2)cc1` [Compound 14259], the “% Inhibition (3 μM)” value was 26.26%.
Still for that read-out and setting: then `O=C1C(Cl)=C(N2CCOCC2)C(=O)N1c1ccccc1Cl` [Compound 14475], with 8.89%.
For `FC(F)(F)c1cccc(-c2csc(-c3ccncc3)n2)c1` [Compound 14421], the inhibition at 3 µM amounted to 107%. Besides, the IC50 (eGFP IC50 (μM), Series 1) amounted to 4.61 µM.
As for `c1cc2c(cc1-c1csc(N3CCOCC3)n1)CCCC2` [Compound 14291], the “anti-AR activity (AR transcriptional inhibition) in words” value was “lost their anti-AR activity” and the inhibition at 3 µM is 18.6%. In addition, the “eGFP IC50” value (LNCaP eGFP cells) is “Low activity”.
`CNc1cc(F)c(OC)c(-c2csc(N3CCOCC3)n2)c1` [Compound 14465] registered an IC50 (eGFP IC50 (μM), Series 1) of 3.06 µM.
Same read-out and setting: the value for `Cc1sc(N2CCOCC2)nc1-c1ccccc1` [Compound 14349] was 1.47 µM.
Regarding `C[C@@H]1C(=O)N(c2ccccc2)C2C=CC=CC21` (stereo partly drawn) [Compound 14078], the inhibition at 3 µM worked out at 65.4%. Under setting [1], this molecule had an IC50 of 20 µM.
As for `O=[N+]([O-])c1ccc(-c2csc(N3CCOCC3)n2)cc1` [Compound 14254], the inhibition at 3 µM stood at 3.37%. The same molecule returned an IC50 (eGFP IC50 (μM), Series 1) of 15.8 µM.
In the case of `CN1CCN(c2nc(-c3ccccc3)cs2)CC1` [Compound 14338], the “% Inhibition (3 μM)” value is given as 19.33%.
As to `O=C(O)c1csc(N2CCOCC2)n1` [Compound 14502], the inhibition at 3 µM was 0%.
Regarding `COc1ccc(-c2csc(N3CCOCC3)n2)c(OC)c1` [Compound 14268], the “% Inhibition (3 μM)” value is on record as 37.55%.
Turning to `Oc1ccc(-c2csc(-c3ccccc3)n2)cc1` [Compound 14420], the inhibition at 3 µM came out at 125%. Where the note is “eGFP IC50 (μM), Series 1”, this molecule displayed an IC50 of 3.73 µM.
Regarding `Clc1cnccc1-c1csc(N2CCOCC2)n1` [Compound 14446], the “% Inhibition (3 μM)” value amounted to 24%.
On the same count and under the same terms, then `CSc1ccc(-c2csc(N3CCOCC3)n2)cc1` [Compound 14297], with 109.99%.
As to `NC(=S)NN=C1c2ccccc2-c2ccccc21` [Compound 14205], the inhibition at 3 µM is 45.8%. The concentration for half-maximal inhibition (IC50) under setting [1] worked out at 7.38 µM.
With `CC1CN(c2nc(-c3ccc(Cl)cc3)cs2)C(C)CO1` (stereo not drawn) [Compound 14248], the “% Inhibition (3 μM)” value is listed as 4.73%.
On the same count and under the same terms, then `Nc1ccc(-c2csc(N3CCOCC3)n2)cc1` [Compound 14256], with 28.14%.
Take `c1ccc2sc(N3CCOCC3)nc2c1` [Compound 14393]: the inhibition at 3 µM amounted to 31.2%. The molecule also showed an IC50 under setting [1] of 46.6 µM.
As to `NC(=O)c1ccc(-c2ccc3ccccc3n2)cc1` [Compound 14389], the inhibition at 3 µM was 14.5%.
Regarding `COc1ccccc1-c1nc(N2CCOCC2)sc1C` [Compound 14363], the “% Inhibition (3 μM)” value is reported as 29.03%.
For `c1ccc2cc(-n3ccnc3)ccc2c1` [Compound 14018], under setting [1], the IC50 worked out at 13.9 µM.
For the molecule `c1ccc2c(-c3csc(N4CCOCC4)n3)cccc2c1` [Compound 14230], the inhibition at 3 µM was 99.5%. Further, the IC50 (eGFP IC50 (μM), Series 1) was 1.61 µM.
As for `NC(=S)N/N=C1\CCCc2ccccc21` [Compound 14175], the inhibition at 3 µM came out at 45.5%. Also, the IC50 under setting [1] is 13.6 µM.
Turning to `c1ccc2c(N3CCOCC3)nccc2c1` [Compound 14112], the inhibition at 3 µM is 9%.
Take `Nc1ccc2nc(-c3cccc(O)c3)sc2c1` [Compound 14387]: the inhibition at 3 µM is 109%. For the same molecule, under setting [1], the IC50 is 14.8 µM.
Regarding `Cc1ccc(-c2csc(N3CCOCC3)n2)c(C)c1` [Compound 14283], the “% Inhibition (3 μM)” value is 38.89%.
As for `Oc1ccc(-c2ccc3ccccc3n2)cc1` [Compound 14440], the inhibition at 3 µM was 8.65%. This molecule yielded an IC50 under setting [1] of 9.48 µM.
In the case of `c1ccc2c(-n3ccnc3)cccc2c1` [Compound 14163], the IC50 under setting [1] is 24 µM.
`c1ccc2cc(-c3csc(N4CCOCC4)n3)ccc2c1` [Compound 14231]: the “% Inhibition (3 μM)” value came out at 38.78%.
Regarding `Nc1nc(-c2ccc3c(c2)CCCC3)cs1` [Compound 14198], the inhibition at 3 µM amounted to 54.4%. For the same molecule, the midpoint of inhibition under setting [1], the IC50, lay at 5.51 µM.
Taken in the same sequence, the figures for `NC(=S)N/N=C1\Cc2cccc3cccc1c23` [Compound 14005] were 92.5% and 2 µM.
In the case of `O=[N+]([O-])c1ccc2nc(N3CCOCC3)ccc2c1` [Compound 14454], the inhibition at 3 µM amounted to 0%.
Regarding `Cc1cccn1-c1csc(N2CCOCC2)n1` [Compound 14410], inhibition (eGFP IC50 (μM), Series 1) was half-maximal at 28.4 µM (IC50).
For `CC(=O)c1ccc(-c2ccccc2)s1` [Compound 14422], the inhibition at 3 µM was determined as 131%. The molecule further yielded an IC50 (eGFP IC50 (μM), Series 1) of 2.26 µM.
For `Cc1cc(N2CCOCC2)nc2ccccc12` [Compound 14434], half-maximal inhibition under setting [1] (IC50) required 1.09 µM.
With `Brc1ccc(-c2csc(N3CCOCC3)n2)cc1` [Compound 14251], the “% Inhibition (3 μM)” value is listed as 7.96%.
For the molecule `COc1ccc(-c2csc(-c3c[nH]c4ccccc34)n2)cc1` [Compound 14443], the “% Inhibition (3 μM)” value is on record as 25.15%.
`Fc1ccc(-c2csc(N3CCSCC3)n2)cc1` [Compound 14386]: the IC50 (eGFP IC50 (μM), Series 1) was found to be 1.6 µM.
On to `Oc1ccccc1-c1ccc2cccnc2n1` [Compound 14336], for which the inhibition at 3 µM stood at 27.1%.
In the case of `OCc1sc(N2CCOCC2)nc1-c1ccccc1` [Compound 14274], the “% Inhibition (3 μM)” value is 5.04%.
Consider `c1ccn(-c2csc(N3CCOCC3)n2)c1` [Compound 14411], for which the “% Inhibition (3 μM)” value worked out at 44.00%.
`NC(=O)N1CCN(c2nc(-c3ccccc3)cs2)CC1` [Compound 14339]: the “% Inhibition (3 μM)” value turned out to be 15.82%.
Turning to `c1sc(N2CCOCC2)nc1C1CCCCC1` [Compound 14406], the “anti-AR activity (AR transcriptional inhibition) in words” value is reported as “lost their anti-AR activity” and the inhibition at 3 µM was 33%. Moreover, the “eGFP IC50” value (LNCaP eGFP cells) is on record as “Low activity”.
Take `NC(=S)N/N=C1\C(=O)c2cccc3cccc1c23` [Compound 14151]: the IC50 under setting [1] came to 30 µM.
With `Clc1ccc(-c2csc(N3CCOCC3)n2)cc1` [Compound 14253], the inhibition at 3 µM amounted to 38.2%. Where the note is “eGFP IC50 (μM), Series 1”, the IC50 was determined as 39.9 µM.
`c1cc2c3c(ccc(-c4ccn[nH]4)c3c1)CC2` [Compound 14053] gave an IC50 under setting [1] of 4 µM.
Turning to `COc1ccc(-c2csc(N3CCOCC3)n2)cc1` [Compound 14249], the “% Inhibition (3 μM)” value amounted to 45.16%.
Same read-out and setting: then `Fc1ccc(-c2csc(N3CCNCC3)n2)cc1` [Compound 14340], with 16.12%.
For the molecule `CNC(=S)N/N=C1\C(=O)c2cccc3cccc1c23` [Compound 14153], under setting [1], 6 µM corresponded to half-maximal inhibition (IC50).
`CC1CN(c2nc(-c3ccc([N+](=O)[O-])cc3)cs2)C(C)CO1` (stereo not drawn) [Compound 14247]: the “% Inhibition (3 μM)” value stood at 3.73%.
Under setting [1], `CCSc1ccc(-c2cc(C)nc(N)n2)cc1` [Compound 14055] gave an IC50 of 10 µM.
Take `O=c1[nH]c(N2CCOCC2)cc2ccccc12` [Compound 14453]: the inhibition at 3 µM amounted to 17.3%.
`COc1c(F)cc(O)cc1-c1csc(N2CCOCC2)n1` [Compound 14467] showed an IC50 (eGFP IC50 (μM), Series 1) of 3.7 µM.

One may read the IC50 as the concentration that gives 50% inhibition. The inhibition is the drop in the measured response relative to a control, in per cent.
